Read-outs that look alike come from different tables or passages of the source.
Tests used:
human μ-opioid receptor = molecular target: T1, human μ-opioid receptor (Homo sapiens, UniProt P35372); assay: Human μ-opioid receptor radioligand assay ([3H]-DAMGO); type: binding
T1 construct: expressed in transfected cells; host or cells: CHO-K1
Method in brief: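 Transfected CHO-K1 membranes (20 μg) incubated with 1 nM [3H]-DAMGO in 50 mM Tris-HCl, 5 mM MgCl2, pH 7.4, 60 min at 27 °C; non-specific binding with 10 μM naloxone. Test compound at five concentrations; bound radioactivity counted after filtration by scintillation.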

[1] = molecular target: Human α2δ-1 subunit of Cav2.2 calcium channel (Homo sapiens, UniProt P54289); assay: Human α2δ-1 subunit of Cav2.2 calcium channel assay ([3H]-Gabapentin); type: binding
Chain of Human α2δ-1 subunit of Cav2.2 calcium channel (P54289 25-1103): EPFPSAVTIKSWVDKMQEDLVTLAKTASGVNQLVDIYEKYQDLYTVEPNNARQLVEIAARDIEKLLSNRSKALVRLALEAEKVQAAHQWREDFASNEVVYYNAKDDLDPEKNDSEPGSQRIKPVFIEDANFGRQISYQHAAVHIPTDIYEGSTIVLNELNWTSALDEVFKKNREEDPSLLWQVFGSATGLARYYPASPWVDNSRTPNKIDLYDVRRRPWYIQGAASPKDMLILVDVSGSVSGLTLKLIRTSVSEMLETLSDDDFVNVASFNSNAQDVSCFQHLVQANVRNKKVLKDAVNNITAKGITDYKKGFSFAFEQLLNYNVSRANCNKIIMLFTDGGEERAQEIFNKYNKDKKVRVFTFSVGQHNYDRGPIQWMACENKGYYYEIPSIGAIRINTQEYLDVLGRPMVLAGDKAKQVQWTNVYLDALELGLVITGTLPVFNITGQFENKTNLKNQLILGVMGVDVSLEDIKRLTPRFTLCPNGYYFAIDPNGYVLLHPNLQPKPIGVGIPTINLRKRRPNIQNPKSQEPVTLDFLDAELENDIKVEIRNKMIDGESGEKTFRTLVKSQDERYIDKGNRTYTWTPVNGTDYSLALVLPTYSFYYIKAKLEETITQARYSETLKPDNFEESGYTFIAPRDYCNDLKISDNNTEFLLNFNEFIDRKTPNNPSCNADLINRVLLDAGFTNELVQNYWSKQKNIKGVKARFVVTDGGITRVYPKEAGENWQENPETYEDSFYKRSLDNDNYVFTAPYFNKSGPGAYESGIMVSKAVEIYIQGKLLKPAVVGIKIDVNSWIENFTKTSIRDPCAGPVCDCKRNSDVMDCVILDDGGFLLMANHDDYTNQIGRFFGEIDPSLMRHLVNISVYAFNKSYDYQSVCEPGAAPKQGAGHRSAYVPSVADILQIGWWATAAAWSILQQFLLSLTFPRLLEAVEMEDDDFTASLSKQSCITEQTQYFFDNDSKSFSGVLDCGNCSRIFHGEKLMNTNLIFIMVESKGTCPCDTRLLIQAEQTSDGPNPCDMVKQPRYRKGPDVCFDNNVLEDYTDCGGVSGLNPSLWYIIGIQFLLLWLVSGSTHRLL
Method in brief: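 α2δ-1-enriched membranes (2.5 μg) were incubated with 15 nM [3H]-gabapentin in 10 mM Hepes-KOH pH 7.4 for 60 min at 27 °C. Non-specific binding was defined with 10 μM pregabalin. Compounds were tested at five concentrations, with filtration and scintillation counting.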

[2] = transfected CHO-K1 cell membranes, 1 nM [3H]-DAMGO, read-out: Binding μ (Ki)
[3] = human α2δ-1 enriched membranes, 15 nM [3H]-Gabapentin, read-out: Binding α2δ-1 (Ki)

T1 sequence (P35372 whole entry): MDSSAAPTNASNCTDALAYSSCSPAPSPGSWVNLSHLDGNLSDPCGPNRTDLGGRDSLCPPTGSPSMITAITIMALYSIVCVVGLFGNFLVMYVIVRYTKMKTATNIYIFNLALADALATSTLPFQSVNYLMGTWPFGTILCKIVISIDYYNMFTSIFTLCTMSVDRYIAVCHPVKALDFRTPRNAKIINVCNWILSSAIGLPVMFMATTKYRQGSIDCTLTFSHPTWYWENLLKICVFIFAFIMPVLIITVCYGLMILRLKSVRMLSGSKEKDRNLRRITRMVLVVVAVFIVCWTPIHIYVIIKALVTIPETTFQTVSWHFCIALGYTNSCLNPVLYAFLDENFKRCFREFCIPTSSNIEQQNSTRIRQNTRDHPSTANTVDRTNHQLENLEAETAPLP

| Ki (human μ-opioid receptor; [2]) | Ki [1, 3] | Structure (SMILES) | Ki (human μ-opioid receptor) | Ki [1] |
| --- | --- | --- | --- | --- |
| > 500 nM | 0.5 to 5 µM | CCOc1ccc(OC(CCNC)c2ccccc2)c(-n2nc3c(N(C)C)nnc(C)c3c2C)c1 (centres unmarked) [Example 89, 2-(5-ethoxy-2-(3-(methylamino)-1-phenylpropoxy)phenyl)-N,N,3,4-tetramethyl-2H-pyrazolo[3,4-d]pyridazin-7-amine] | – | – |
| > 500 nM | 0.5 to 5 µM | CCOc1cccc(C(CCNC)Oc2ccccc2-n2nc3c(N(C)C)nnc(C)c3c2C)c1 (centres unmarked) [Example 90, 2-(2-(1-(3-ethoxyphenyl)-3-(methylamino)propoxy)phenyl)-N,N,3,4-tetramethyl-2H-pyrazolo[3,4-d]pyridazin-7-amine] | – | – |
| > 500 nM | 0.5 to 5 µM | CNCCC(Oc1ccccc1-n1nc2c(N(C)C)nnc(C)c2c1C)c1cccc(C(N)=O)c1 (centres unmarked) [Example 91, 3-(1-(2-(7-(Dimethylamino)-3,4-dimethyl-2H-pyrazolo[3,4-d]pyridazin-2-yl)phenoxy)-3-(methylamino)propyl)benzamide] | – | – |
| > 500 nM | 0.5 to 5 µM | CNCCC(Oc1ccccc1-n1nc2c(N(C)C)nnc(C)c2c1C)c1ccc(C(N)=O)cc1 (centres unmarked) [Example 92, 4-(1-(2-(7-(dimethylamino)-3,4-dimethyl-2H-pyrazolo[3,4-d]pyridazin-2-yl)phenoxy)-3-(methylamino)propyl)benzamide] | – | – |
| > 500 nM | > 5 µM | CNCCC(Oc1ccc(C(N)=O)cc1-n1nc2c(N(C)C)nnc(C)c2c1C)c1ccccc1 (centres unmarked) [Example 93, 3-(7-(dimethylamino)-3,4-dimethyl-2H-pyrazolo[3,4-d]pyridazin-2-yl)-4-(3-(methylamino)-1-phenylpropoxy)benzamide] | – | – |
| > 500 nM | > 5 µM | CNCCC(Oc1cc(C(N)=O)ccc1-n1nc2c(N(C)C)nnc(C)c2c1C)c1ccccc1 (centres unmarked) [Example 94, 4-(7-(dimethylamino)-3,4-dimethyl-2H-pyrazolo[3,4-d]pyridazin-2-yl)-3-(3-(methylamino)-1-phenylpropoxy)benzamide] | – | – |
| > 500 nM | 0.5 to 5 µM | CNCCC(Oc1cc(C(=O)N(C)C)ccc1-n1nc2c(N(C)C)nnc(C)c2c1C)c1ccccc1 (centres unmarked) [Example 95] | – | – |
| > 500 nM | > 5 µM | CNCCC(Oc1ccc(C(=O)N(C)C)cc1-n1nc2c(N(C)C)nnc(C)c2c1C)c1ccccc1 (centres unmarked) [Example 96, 3-(7-(Dimethylamino)-3,4-dimethyl-2H-pyrazolo[3,4-d]pyridazin-2-yl)-N,N-dimethyl-4-(3-(methylamino)-1-phenylpropoxy)benzamide] | – | – |
| > 500 nM | 0.5 to 5 µM | CNCCC(Oc1ccc(O)cc1-n1nc2c(N(C)C)nnc(C)c2c1C)c1ccccc1 (centres unmarked) [Example 97, 3-(7-(Dimethylamino)-3,4-dimethyl-2H-pyrazolo[3,4-d]pyridazin-2-yl)-4-(3-(methylamino)-1-phenylpropoxy)phenol] | – | – |
| > 500 nM | 0.5 to 5 µM | CNCCC(Oc1cc(O)ccc1-n1nc2c(N(C)C)nnc(C)c2c1C)c1ccccc1 (centres unmarked) [Example 98, 4-(7-(dimethylamino)-3,4-dimethyl-2H-pyrazolo[3,4-d]pyridazin-2-yl)-3-(3-(methylamino)-1-phenylpropoxy)phenol] | – | – |
| – | – | CNCC[C@H](Oc1ccccc1-n1nc2c(N(C)C)nnc(C)c2c1C)c1ccccc1 [Example 99, (S)-N,N,3,4-Tetramethyl-2-(2-(3-(methylamino)-1-phenylpropoxy)phenyl)-2H-pyrazolo[3,4-d]pyridazin-7-amine] | 100 to 500 nM | 0.5 to 5 µM |
| – | – | CNCC[C@@H](Oc1ccccc1-n1nc2c(N(C)C)nnc(C)c2c1C)c1ccccc1 [Example 100, (R)-N,N,3,4-tetramethyl-2-(2-(3-(methylamino)-1-phenylpropoxy)phenyl)-2H-pyrazolo[3,4-d]pyridazin-7-amine] | > 500 nM | 0.5 to 5 µM |
| – | – | CCNCC[C@@H](Oc1ccccc1-n1nc2c(N(C)C)nnc(C)c2c1C)c1ccccc1 [Example 101, (R)-2-(2-(3-(Ethylamino)-1-phenylpropoxy)phenyl)-N,N,3,4-tetramethyl-2H-pyrazolo[3,4-d]pyridazin-7-amine] | 100 to 500 nM | 0.5 to 5 µM |
| – | – | CCNCC[C@H](Oc1ccccc1-n1nc2c(N(C)C)nnc(C)c2c1C)c1ccccc1 [Example 102, (S)-2-(2-(3-(ethylamino)-1-phenylpropoxy)phenyl)-N,N,3,4-tetramethyl-2H-pyrazolo[3,4-d]pyridazin-7-amine] | > 500 nM | 0.5 to 5 µM |
| – | – | CNCC[C@H](Oc1ccccc1-n1nc2c(N(C)C)nnc(C)c2c1C)c1cccc(F)c1 [Example 103, (S)-2-(2-(1-(3-Fluorophenyl)-3-(methylamino)propoxy)phenyl)-N,N,3,4-tetramethyl-2H-pyrazolo[3,4-d]pyridazin-7-amine] | > 500 nM | < 0.5 µM |
| – | – | CNCC[C@@H](Oc1ccccc1-n1nc2c(N(C)C)nnc(C)c2c1C)c1cccc(F)c1 [Example 104, (R)-2-(2-(1-(3-fluorophenyl)-3-(methylamino)propoxy)phenyl)-N,N,3,4-tetramethyl-2H-pyrazolo[3,4-d]pyridazin-7-amine] | 100 to 500 nM | 0.5 to 5 µM |

From patent US10562908B2, “Ortho substituted phenylpyrazolo- and phenylpyrrolo-pyridazine derivatives having multimodal activity against pain” (priority 2016, dated 2020)
